Assay results taken from patent publication US20160280736A1, “CYCLIC PEPTIDE COMPOUND, AND PREPARATION METHOD, PHARMACEUTICAL COMPOSITION AND USE THEREOF” (HANGZHOU GUANYU BIO-MEDICAL CO., LTD., priority 2013, published 2016).

Columns and labels:
[1] = test system: MDA-MB-231 (breast cancer cells); assay: MTT cancer cell growth inhibition; type: cell-based; settings: Homo sapiens, MDA-MB-231, 72 h, MDA-MB-231 cells, 72 hours incubation
Description: (§1) MTT assay principle is yellow MTT can penetrate membrane into the cell, succinic dehydrogenase of the mitochondria in living cells can make exogenous MTT reduction of insoluble in water of blue-violet acicular formazan for crystallization and deposition in the cell, crystallization can be dissolved dimethyl sulfoxide (DMSO) solution, detected its absorbance at 490 nm/570 nm wavelength by enzyme-linked immunosorbent assay, which can reflect the number of cells.
(§2) Using DMEM+10% FBS culture medium or using 1640+10% FBS culture, respectively.
(§3) Experimental group: 190 μl cell suspension+10 μl different concentrations of drugs (the final concentration is 10^−5˜10^−10 M)
(§4) a) Cells were seeded in 96-well plates with the inoculation of 1500/well, 190 μl/hole, 37° C., 5% of CO2 incubator overnight;
(§5) b) The next day each well was added 10 μl of different drugs. The final concentration of drug was 10^−5˜10^−10 M, three parallel holes; 37° C., 5% CO2 culture incubator for 72 hours incubation;
(§6) c) Per well was added 20 μl 5 mg/ml of MTT, 37° C., 5% CO2 culture incubator for 4 hours incubation;
(§7) d) The supernatant was discarded. Each well was added 100 μl of DMSO and oscillation;
(§8) e) 570 nm readings. Calculate cell viability. GI50 calculation based on the results.

[2] = test system: KBM5-T315I (human chronic myelogenous leukemia); assay: MTT cancer cell growth inhibition; type: cell-based; settings: 72 h, KBM5-T315I cells, 72 hours incubation, read-out: GI50 KBM5-T
Description: as §1, §2, §3, §4, §5, §6, §7, §8

[3] = test system: K562 (human leukemia cells); assay: MTT cancer cell growth inhibition; type: cell-based; settings: K562, 72 h, 72 hours incubation
Description: as §1, §2, §3, §4, §5, §6, §7, §8

[4] = test system: SGC-7901 (human gastric cancer cells); assay: MTT cancer cell growth inhibition; type: cell-based; settings: SGC-7901, 72 h, SGC-7901 cells, 72 hours incubation, read-out: GI50 SGC-79
Description: as §1, §2, §3, §4, §5, §6, §7, §8

[5] = test system: Huh-7 (human hepatoma cells); assay: MTT cancer cell growth inhibition; type: cell-based; settings: Huh-7, 72 h, Huh-7 cells, 72 hours incubation
Description: as §1, §2, §3, §4, §5, §6, §7, §8

[6] = test system: KBM-5 (human chronic myelogenous leukemia); assay: MTT cancer cell growth inhibition; type: cell-based; settings: KBM5, 72 h, KBM-5 cells, 72 hours incubation
Description: as §1, §2, §3, §4, §5, §6, §7, §8

[7] = test system: N-87 (human gastric cancer cells); assay: MTT cancer cell growth inhibition; type: cell-based; settings: 72 h, N-87 cells, 72 hours incubation
Description: as §1, §2, §3, §4, §5, §6, §7, §8

[8] = test system: Bel-7402 (human hepatoma cells); assay: MTT cancer cell growth inhibition; type: cell-based; settings: Bel-7402, 72 h, Bel-7402 cells, 72 hours incubation, read-out: GI50 Bel-7
Description: as §1, §2, §3, §4, §5, §6, §7, §8

[9] = test system: HCC827 (human non-small cell lung cancer cells); assay: MTT cancer cell growth inhibition; type: cell-based; settings: HCC827, 72 h, 72 hours incubation, read-out: GI50 HCC8
Description: as §1, §2, §3, §4, §5, §6, §7, §8

[10] = target: T1, HDAC8 (Homo sapiens, UniProt Q9BY41); assay: HDAC biochemical activity measurement (fluorescent substrate deacetylation); settings: HDAC8 enzyme, 37°, 30 minutes
T1 sequence (Q9BY41 1-377): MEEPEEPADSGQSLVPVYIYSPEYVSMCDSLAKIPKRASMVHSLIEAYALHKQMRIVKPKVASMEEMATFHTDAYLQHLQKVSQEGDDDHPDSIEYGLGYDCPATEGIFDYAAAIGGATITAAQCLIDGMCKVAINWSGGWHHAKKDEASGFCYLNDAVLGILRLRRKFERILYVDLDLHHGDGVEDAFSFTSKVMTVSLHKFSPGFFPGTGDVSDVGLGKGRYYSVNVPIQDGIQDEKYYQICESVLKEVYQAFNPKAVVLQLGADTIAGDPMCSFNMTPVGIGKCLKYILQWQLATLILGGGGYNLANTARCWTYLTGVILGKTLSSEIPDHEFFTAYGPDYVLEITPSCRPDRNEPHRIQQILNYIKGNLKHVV
Description: (§9) Measurement principle: The chemical activity of the compound is determined according to the degree of deacetylation inhibition of the HDAC enzyme. This experiment measured the degree of deacetylation related to tumor proliferation and metastasis of HDAC1, HDAC2, HDAC3, HDAC8, HDAC11 five subtypes HDAC enzymes. After the substrate containing an acetylated lysine side chain and HDAC enzyme are labeled with a fluorescent label, the fluorescent substrate is de acetyl. The fluorescent labeled substrate is cleaved by the enzyme, and the fluorescent substance is released, which generates 460 nm emission light under the excitation of 360 nm light.
(§10) Specific steps: HDAC substrate was diluted with reaction buffer to 200M (reaction concentration of 20M), the HDAC enzyme was diluted to the appropriate concentration, then added different concentrations of the test compounds and acted at 37 ? 30 minutes, and then added the same volume of 2-times concentration substrate developing solution (developer), incubated at room temperature for 15 minutes. Finally, the last reading measured with a microplate plate reader, excitation light was 360 nm, the emitted light was 460 nm, data processing software was Prime 4, and the results are shown in Table 1.

[11] = target: HDAC2 (Homo sapiens, UniProt Q92769); assay: as above; settings: HDAC2 enzyme, 37°, 30 minutes
Description: as §9, §10

[12] = target: HDAC1 (Homo sapiens, UniProt Q13547); assay: as above; settings: HDAC1 enzyme, 37°, 30 minutes
Description: as §9, §10

[13] = target: T2, HDAC11 (Homo sapiens, UniProt Q96DB2); assay: as above; settings: IC50 (μM) HDAC11, HDAC11 enzyme, 37°, 30 minutes
T2 sequence (Q96DB2 1-347): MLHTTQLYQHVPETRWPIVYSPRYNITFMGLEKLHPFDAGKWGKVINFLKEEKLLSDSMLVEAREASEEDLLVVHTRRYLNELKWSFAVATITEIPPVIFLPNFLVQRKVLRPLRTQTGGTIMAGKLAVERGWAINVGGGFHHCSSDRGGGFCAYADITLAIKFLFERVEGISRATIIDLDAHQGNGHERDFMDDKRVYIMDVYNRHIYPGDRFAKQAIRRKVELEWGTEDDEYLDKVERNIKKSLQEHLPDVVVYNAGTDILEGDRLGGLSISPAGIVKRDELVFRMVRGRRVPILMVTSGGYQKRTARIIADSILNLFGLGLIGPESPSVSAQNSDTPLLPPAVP
Description: as §9, §10

[14] = test system: PANC-1 (Pac-1, human pancreatic cancer cells); assay: MTT cancer cell growth inhibition; type: cell-based; settings: Homo sapiens, PANC-1, 72 h, 72 hours incubation, PANC-1 cells, read-out: GI50 PAN
Description: as §1, §2, §3, §4, §5, §6, §7, §8

[15] = test system: DU145 (human prostate cancer cells); assay: MTT cancer cell growth inhibition; type: cell-based; settings: Homo sapiens, DU-145, 72 h, 72 hours incubation, DU145 cells, read-out: GI50 Du14
Description: as §1, §2, §3, §4, §5, §6, §7, §8

[16] = test system: MOLT-4 (human acute lymphoblastic leukemia cells); assay: MTT cancer cell growth inhibition; type: cell-based; settings: Homo sapiens, MOLT-4, 72 h, 72 hours incubation, MOLT-4 cells, read-out: GI50 Molt-
Description: as §1, §2, §3, §4, §5, §6, §7, §8

[17] = test system: BGC-823 (human gastric cancer cells); assay: MTT cancer cell growth inhibition; type: cell-based; settings: Homo sapiens, BGC-823, 72 h, 72 hours incubation, BGC-823 cells, read-out: GI50 BGC8
Description: as §1, §2, §3, §4, §5, §6, §7, §8

[18] = test system: HT1080 (human fibrosarcoma cells); assay: MTT cancer cell growth inhibition; type: cell-based; settings: Homo sapiens, HT-1080, 72 h, 72 hours incubation, HT1080 cells, read-out: GI50 HT10
Description: as §1, §2, §3, §4, §5, §6, §7, §8

[19] = test system: A549 (human lung cancer cells); assay: MTT cancer cell growth inhibition; type: cell-based; settings: Homo sapiens, A549, 72 h, 72 hours incubation, A549 cells, read-out: GI50 A549
Description: as §1, §2, §3, §4, §5, §6, §7, §8

[20] = test system: lncap (prostate cancer cells); assay: MTT cancer cell growth inhibition; type: cell-based; settings: Homo sapiens, LNCaP, 72 h, 72 hours incubation, lncap cells, read-out: GI50 lncap
Description: as §1, §2, §3, §4, §5, §6, §7, §8

[21] = test system: MCF-7 (human breast cancer cells); assay: MTT cancer cell growth inhibition; type: cell-based; settings: Homo sapiens, MCF7, 72 h, 72 hours incubation, MCF-7 cells
Description: as §1, §2, §3, §4, §5, §6, §7, §8

[22] = test system: Hela (human cervical cancer cells); assay: MTT cancer cell growth inhibition; type: cell-based; settings: Homo sapiens, HeLa, 72 h, 72 hours incubation, Hela cells, read-out: GI50 Hela
Description: as §1, §2, §3, §4, §5, §6, §7, §8

[23] = test system: U937 (human leukemia cells); assay: MTT cancer cell growth inhibition; type: cell-based; settings: Homo sapiens, U-937, 72 h, 72 hours incubation
Description: as §1, §2, §3, §4, §5, §6, §7, §8

[24] = target: HDAC3 (Homo sapiens, UniProt O15379); assay: HDAC biochemical activity measurement (fluorescent substrate deacetylation); settings: IC50 (μM) HDAC3, HDAC3 enzyme, 37°, 30 minutes
Chain of HDAC3 (O15379 whole entry, species assumed): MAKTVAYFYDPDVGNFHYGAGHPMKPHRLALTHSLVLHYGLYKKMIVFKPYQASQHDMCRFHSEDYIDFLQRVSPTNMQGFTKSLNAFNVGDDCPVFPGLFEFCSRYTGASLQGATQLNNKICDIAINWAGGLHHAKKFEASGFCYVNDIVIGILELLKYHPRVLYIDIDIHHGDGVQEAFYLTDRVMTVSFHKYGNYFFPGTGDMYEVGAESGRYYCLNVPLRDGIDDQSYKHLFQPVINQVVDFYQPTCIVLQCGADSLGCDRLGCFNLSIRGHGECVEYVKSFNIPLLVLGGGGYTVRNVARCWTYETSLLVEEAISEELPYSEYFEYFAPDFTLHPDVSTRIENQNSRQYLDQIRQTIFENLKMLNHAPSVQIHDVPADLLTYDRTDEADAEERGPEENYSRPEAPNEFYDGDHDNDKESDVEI
Chain of HDAC3 (Q9Y618 395-489 partner limits assumed, species assumed): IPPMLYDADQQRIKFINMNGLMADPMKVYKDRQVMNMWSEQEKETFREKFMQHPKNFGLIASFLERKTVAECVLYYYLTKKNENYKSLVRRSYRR
Description: as §9, §10

Chain of HDAC2 (Q92769 whole entry, species assumed): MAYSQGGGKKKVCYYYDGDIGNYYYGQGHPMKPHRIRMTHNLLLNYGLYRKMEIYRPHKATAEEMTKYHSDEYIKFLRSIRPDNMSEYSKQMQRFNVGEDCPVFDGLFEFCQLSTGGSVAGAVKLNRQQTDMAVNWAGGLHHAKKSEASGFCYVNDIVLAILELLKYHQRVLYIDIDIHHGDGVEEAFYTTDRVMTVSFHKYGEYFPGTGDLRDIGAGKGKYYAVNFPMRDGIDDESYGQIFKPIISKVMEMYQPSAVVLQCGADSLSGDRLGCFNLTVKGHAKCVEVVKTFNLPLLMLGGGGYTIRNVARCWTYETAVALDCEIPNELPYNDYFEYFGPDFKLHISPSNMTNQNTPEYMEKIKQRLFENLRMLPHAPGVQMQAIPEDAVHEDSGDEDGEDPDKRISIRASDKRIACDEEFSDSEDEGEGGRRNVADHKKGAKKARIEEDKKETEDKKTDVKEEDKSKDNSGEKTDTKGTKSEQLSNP
Chain of HDAC1 (Q13547 whole entry, species assumed): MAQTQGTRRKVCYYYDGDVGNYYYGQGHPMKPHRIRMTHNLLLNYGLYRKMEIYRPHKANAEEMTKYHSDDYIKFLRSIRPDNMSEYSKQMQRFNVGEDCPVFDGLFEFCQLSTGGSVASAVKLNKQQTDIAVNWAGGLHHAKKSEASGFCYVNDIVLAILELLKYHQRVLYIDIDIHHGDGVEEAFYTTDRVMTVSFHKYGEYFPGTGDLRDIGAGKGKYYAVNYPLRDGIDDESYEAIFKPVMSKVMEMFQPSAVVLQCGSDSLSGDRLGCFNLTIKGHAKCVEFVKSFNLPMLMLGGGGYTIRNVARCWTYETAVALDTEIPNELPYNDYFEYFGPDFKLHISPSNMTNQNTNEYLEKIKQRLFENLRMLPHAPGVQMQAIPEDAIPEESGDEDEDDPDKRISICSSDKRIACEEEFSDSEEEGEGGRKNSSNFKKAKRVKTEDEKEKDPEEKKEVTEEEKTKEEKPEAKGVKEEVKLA

GI50 [1] [nM]	GI50 [2] [nM]	GI50 [3] [nM]	GI50 [4] [nM]	GI50 [5] [nM]	GI50 [6] [nM]	IC50 [10] [µM]	IC50 [11] [µM]	IC50 [12] [µM]	IC50 [13] [µM]	GI50 [14] [nM]	GI50 [15] [nM]	GI50 [17] [nM]	GI50 [18] [nM]	GI50 [19] [nM]	GI50 [20] [nM]	GI50 [21] [nM]	GI50 [22] [nM]	GI50 [23] [nM]	IC50 [24] [µM]	Compound	other results
25	63	42	39	25	79	–	–	–	–	–	–	–	–	–	–	–	–	–	–	C/C=C1\NC(=O)c2ccc(F)c(n2)CNC(=O)C[C@@H](/C=C/CCSC(C)=O)OC(=O)[C@H](C(C)C)NC1=O (single isomer, unassigned) [Example 50]	GI50 [7]: 69 nM
26	55	17	67	26	87	–	–	–	–	–	–	–	–	–	–	–	–	–	–	C/C=C1\NC(=O)c2cc(F)cc(n2)CNC(=O)C[C@@H](/C=C/CCSC(C)=O)OC(=O)[C@H](C(C)C)NC1=O [Compound 49]	GI50 [8]: 72 nM; GI50 [7]: 73 nM; GI50 [9]: 72 nM
–	–	–	–	–	–	0.027	0.019	0.082	0.091	26	73	37	95	25	51	23	76	24	0.051	C/C=C1\NC(=O)c2cc(SC)cc(n2)CNC(=O)C[C@@H](/C=C/CCSC(=O)CCCC)OC(=O)[C@H](C(C)C)NC1=O [Compound 157]	GI50 [16]: 25 nM
–	–	–	–	–	–	0.043	0.028	0.081	0.092	23	63	32	76	37	43	21	68	42	0.053	C/C=C1\NC(=O)c2ccc(SC)c(n2)CNC(=O)C[C@@H](/C=C/CCSC(=O)CCCC)OC(=O)[C@H](C(C)C)NC1=O [Compound 158]	–
–	–	–	–	–	–	0.062	0.033	0.061	0.086	11	23	29	57	83	79	73	12	65	0.063	C/C=C1\NC(=O)c2ccc(SC)c(n2)CNC(=O)C[C@@H](/C=C/CCSC(=O)CCC)OC(=O)[C@H](C(C)C)NC1=O [Compound 161]	GI50 [16]: 32 nM
